Measurements published in patent US20030181373A1, “Vascular relaxation agents” (priority 2000, published 2003).

Experiments:
[1] = system: extirpated mouse lymph duct (efferent lymph duct of iliac lymph node); assay: Test for inhibition of spontaneous contraction of lymph duct (perfused extirpated mouse lymph duct, video microscope); design: species or system DDY mice
Method: The evaluation method of relaxation or contraction response is conducted based on a value (relative spontaneous contraction suppression) obtained by dividing the number of spontaneous contractions per minute observed after drug administration until returning to even spontaneous contractions by the average number of spontaneous contractions per minute before drug administration. For example, supposing that it takes 3 minutes to return to even spontaneous contractions after drug administration and that the contractions occur 9 times during that period, the value after drug administration is 3 times/minute. Therefore, if the frequency before drug administration is 15 times/minute, the suppression effect is represented as 20%, which is calculated by dividing 3 by 15 and standardizing the quotient as a percent.
Pentbarbital sodium (50 mg/kg) was intraperitoneally administered to DDY mice (male, 5 to 6 weeks old) so as to be anesthetized and sacrificed, and an efferent lymph duct of an iliac lymph node (with a maximum inner diameter of 300 μm) was extirpated. The extirpated lymph duct was preserved in a chilled Krebs solution (120 mM NaCl, 5.9 mM KCl, 2.5 mM CaCl2, 1.2 mM MgSO4, 1.2 mM NaH2PO4, 5.5 mM glucose, 25.0 mM NaHCO3) at 4° C.
The inner diameter of the perfused extirpated mouse lymph duct specimen, as obtained above, was measured using a video microscope system (FIG. 1). An internal pressure of 3 to 4 cm H2O was supplied to the specimen to induce spontaneous contraction.
Effects of PTHrP(1-34) on spontaneous contraction of the lymph duct were examined and compared with a control, in the presence of NO synthesis inhibitor (L-NAME, 3×10^−5 M), L-arginine (10^−3 M) as a substrate of […], glibenclamide 10^−6 M as an ATP-sensitive K^+ channel inhibitor, and PTHrP(7-34) as a PTH receptor antagonist.

[2] = system: extirpated human medullary arteriole; assay: Relaxation effects on an extirpated human medullary arteriole (perfused specimen); details: control 127 μm
Method: Resistance vessel extirpated from femoral cancellous bone and the inside of femoral bone marrow during an artificial joint replacement surgery of a human (malum coxae) was used as a sample of human medullary arteriole. The extirpated femoral concellous bone and femoral bone marrow were preserved in a chilled Krebs solution (at 4° C. or lower), and thereafter used in the following in vitro experiment.
A perfused specimen from this sample was prepared in the same manner as the perfused specimen of the extirpated mouse miniature lymph duct in Example 1.
An image of the diameter of the specimen was captured through an object lens, a taking lens, and a CCD camera in the same manner as Example 2.
With respect to the perfused specimen as prepared above, relaxation effect of PTHrP(1-34)(10^−8M) in the presence of vasoconstricting norepinephrine (NE, 10^−6 M) was examined.

[3] = system: extirpated rat medullary arteriole; assay: Inner diameter changes of perfused medullary arteriole specimen of rat thigh bone; design: species or system Wistar rats
Method: Wistar rats (male, 5 to 6 weeks old) were anesthetized with pentbarbital ([…] of intraperitoneal administration) and sacrificed. All the skin, muscle, and ligament attached to the thigh bones were removed so as to expose and extirpate the thigh bones. The extirpated thigh bones were preserved in Krebs solution (at approximately 4° C.) for approximately 30 minutes. Strength was applied along the long axis direction of the thigh bone using mosquito forceps so as to crack the thigh bone along the long axis. Then, the cracked thigh bone was place into a petri dish (containing Krebs solution at approximately 4° C.) which was coated with SILIGUARD. Under a stereoscopic microscope, the thigh bone was removed using microsurgical forceps (commercially available forceps that was further sharpened by a grinder) to expose the bone marrow.
Krebs solution (at approximately 4° C.) was filled into a 1 ml syringe (having a 27G needle attached thereto) and the inside of the bone marrow was washed with the Krebs solution so as to remove myeloid cells adhering to blood vessels.
As a result, a blood vessel network was observed (FIG. 8), and arterioles indicated by black wedge-shaped arrowheads were extirpated under a stereoscopic microscope using micro cusps and microsurgical forceps.
The extirpated medullary arteriole was fixed in an apparatus for preparing a perfused specimen (FIG. 1, vessel chamber 9), and a hydrostatic pressure was supplied thereto so as to wash and remove blood from the arteriole lumen. The inner pressure of the specimen was kept at 40 mmHg during the experiment and the exposed side of the specimen was continuously perfused (12 ml/min) with Krebs solution which was kept at 37° C. and pH of 7.4.
An image of the diameter of the specimen was captured through a object lens, a taking lens, and a CCD camera.

Compound: COC(=O)[C@@H](N)CCCNC(=N)N[N+](=O)[O-] [L-NAME, N^G-nitro L-arginine methyl ester]
- effect on inhibition of spontaneous lymph duct contraction by PTHrP(1-34), typical response ([1]; L-NAME 3×10^−5 M, PTHrP(1-34) 3×10^−9 M, FIG. 3B): cancelled out
- effect on lymph duct relaxation by PTHrP(1-34), four measurements ([1]; in the presence of L-NAME (3×10^−5 M), FIG. 4): significantly cancelled out

Compound: N=C(N)NCCC[C@H](N)C(=O)O [L-arginine]
- effect of simultaneous treatment with L-NAME on the cancellation effect, typical response ([1]; L-arginine 10^−3 M with L-NAME 3×10^−5 M, PTHrP(1-34) 3×10^−9 M, FIG. 3C): suppressed the cancellation effect of L-NAME
- effect of simultaneous treatment with L-NAME on the cancellation effect, four measurements ([1]; L-arginine (10^−3 M) with L-NAME (3×10^−5 M), FIG. 4): significantly suppressed the cancellation effect of L-NAME

Compound: NC[C@H](O)c1ccc(O)c(O)c1 [NE, norepinephrine]
- inner diameter of perfused specimen in the presence of NE ([2]; NE 10^−6 M, internal pressure 55 mmHg, FIG. 11(b)): 33 μm

Compound: COc1ccc(Cl)cc1C(=O)NCCc1ccc(S(=O)(=O)NC(=O)NC2CCCCC2)cc1 [glibenclamide]
- effect on lymph duct relaxation caused by PTHrP(1-34), typical response ([1]; glibenclamide 10^−6 M, PTHrP(1-34) 3×10^−9 M, FIG. 5B): cancelled out
- effect on lymph duct relaxation caused by PTHrP(1-34), four measurements ([1]; glibenclamide (10^−6 M), FIG. 6): significantly cancelled out

Compound: PTHrP(1-34): peptide comprising a sequence of 1 to 34 amino acids relative to the amino acid sequences of the PTHrP
- inner diameter of perfused specimen after addition of PTHrP(1-34) in the presence of NE ([2]; PTHrP(1-34) 10^−8 M with NE 10^−6 M, NE alone 33 μm, FIG. 11(c)): 121 μm
- dose dependence of dilation effect ([3]; 10^−10 to 10^−8 M, FIG. 10): dose dependent
- inner diameter at maximum dilation (relaxation) after administration ([3]; PTHrP(1-34) 10^−8 M, dilated from 66 μm, passive diameter 120 μm, internal pressure 40 mmHg, FIG. 9): 114 μm
- dose at which dilation response was induced ([3]; dose range 10^−10 to 10^−8 M, FIG. 10): 10^−9 M
- frequency of spontaneous contraction after drug administration ([1]; 3×10^−10 of PTHrP(1-34), 15 times/minute before drug administration, FIG. 2A): 13 times/minute
- effect on spontaneous contractions of the lymph duct at increased concentration ([1]; PTHrP(1-34) 10^−9 M, 3×10^−9 M, in addition to dilation responses, FIG. 2A): stopped remarkably
- effect of increasing PTHrP(1-34) on lymph duct (relative spontaneous contraction frequency ratio) ([1]; control without L-NAME and L-arginine, four measurements, FIG. 4): relaxed the lymph duct
- tachyphylaxis on repeated dose response ([1]; same specimen washed for 1 hour, dose response re-examined, FIG. 2B): induced remarkable tachyphylaxis

Compound: PTHrP(7-34): peptide having a sequence comprising from 7 to 34 amino acids of PTHrP; PTH/PTHrP receptor antagonist
- effect on lymph duct relaxation by PTHrP(1-34), four individual examples ([1]; PTHrP(7-34) 10^−7 M, PTHrP(1-34) 10^−10 to 3×10^−9 M, FIG. 7): significantly cancelled out
